A word on the pKa: it is the negative logarithm of the acid dissociation constant. A lower pKa goes with a group that gives up its proton readily.

For the first data set the following is noted: acidic group.
`CC(C)=C=CC(C)(C)C(=O)O`: the pKa worked out at 4.7.

Take `Oc1ccc(-c2cc(=S)ss2)cc1`: the pKa was found to be 7.86.

Compound `Cn1c[nH+]c(C(=O)O)c1C(=O)O` gave a pKa of -0.88.

`Cc1ccc(Br)c(O)c(=O)c1` showed a pKa of 6.3.

Compound `Cc1ccc(O)c([O-])c1` yielded a pKa of 13.3.

`CC1=NS(=O)(=O)c2cccnc2N1`: the pKa was 7.64.

For `CO[C@H]1O[C@H](C(=O)O)[C@H](O)[C@H](O)[C@H]1O`, the pKa was determined as 3.55.

In the case of `O=C1CCC(C2CCCCC2)C(=O)C1` (configuration not stated), the pKa amounted to 5.5.

`COc1ccc(CCC(=O)O)cc1` came in with a pKa of 4.72.

Compound `O=C(O)C[Se]c1ccccc1` had a pKa of 3.75.

Take `CC(C)N(C(=S)S)C(C)C`: the pKa amounted to 4.3.

`O=S(=O)(O)c1ccc(Br)cc1`: the pKa is -6.72.

The compound `C[NH+](C)CCCCCCCCCNC(=O)/C=N/O` came in with a pKa of 8.99.

`O=C(Oc1ccc([N+](=O)[O-])cc1[N+](=O)[O-])c1ccc(O)cc1` registered a pKa of 7.68.

In the case of `O=S(=O)([O-])c1c(O)ccc2cn[nH]c12`, the pKa was determined as 9.45.

Compound `CN(C)/C=N/c1cccc(O)c1` yielded a pKa of 10.2.

`O=C(O[C@H]1O[C@@H](C(=O)O)[C@H](O)[C@@H](O)[C@@H]1O)c1ccccc1`: the pKa is 2.85.

The compound `COC(=O)CC(=N/[O-])/C(C)=N/O` gave a pKa of 11.6.

On to `COc1cccnc1C(O)O`, for which the pKa was found to be 12.9.

As to `Cc1ccc(S(=O)(=O)NCC[NH+](CC(=O)[O-])CC(=O)[O-])cc1`, the pKa was 7.86.

`O=S(=O)([O-])c1ccc(O)cc1` registered a pKa of 8.91.

Compound `Cc1cccc(C[N+](=O)[O-])c1` displayed a pKa of 6.97.

Take `O=[N+]([O-])c1ccccc1O`: the pKa was 7.15.

`N#CC(C#N)=NNc1ccc(OC(F)(F)F)cc1` came in with a pKa of 6.

`CC(C)CC(N)C(N)=O` (configuration not stated) showed a pKa of 8.

Compound `Cc1ccc(NC(=S)c2ccccc2)cc1` gave a pKa of 10.8.

The compound `CC(C)(C)c1cc(/C=C/C(=O)[O-])cc(C(C)(C)C)c1O` returned a pKa of 11.1.

On to `CC(C)c1ccc(C(=O)/C=C/C(=O)O)cc1`, for which the pKa was found to be 3.4.

`Cc1cccc(NS(=O)(=O)c2ccccc2)c1`: the pKa came out at 8.48.

Regarding `Oc1ccc2cccc(-c3ccccc3)c2c1`, the pKa amounted to 9.38.

`NS(=O)(=O)c1ccc(P(=O)([O-])[O-])cc1` yielded a pKa of 10.

Still in this data set, the particulars now being: basic group.
With `COc1cc2c(cc1OC)C13CCN4C1CC1C(=CCOC5CC(=O)N2C3C51)[C@@H]4S(=O)(=O)[O-]` (some centres not stated), the pKa turned out to be 3.12.

`Cc1cc(O)n(-c2nc(C)c(C)c([O-])n2)n1` gave a pKa of 10.3.

Turning to `CC(C)C[C@H]([NH3+])C(=O)N[C@@H](Cc1c[nH]cn1)C(=O)[O-]`, the pKa turned out to be 6.69.

For the compound `CC(C)(N)CO`, the pKa was 9.74.

Compound `CCC(O)CN(C)CC(C)O` (configuration not stated) showed a pKa of 8.9.

Consider `CN(C)/C=N/c1cccc(O)c1`, for which the pKa worked out at 7.88.

As to `C#CC(CC)(CC)N(C)C(C)C`, the pKa was 8.8.

With `N=C(Sc1ccccc1)c1ccccc1`, the pKa stood at 4.48.

Regarding `c1cc([C@@H]2CCCN2)nc([C@@H]2CCC[NH2+]2)c1`, the pKa was 9.39.

The compound `N[C@@H](Cc1c[nH]c2ccccc12)C(=O)[O-]` returned a pKa of 9.31.

For the compound `Cn1ncc2c(NCCO)ncnc21`, the pKa was 3.86.

With `N#CC(C#N)=NNc1ccc(OC(F)(F)F)cc1`, the pKa was -0.78.

`CCC(C)NC(C)C` (configuration not stated): the pKa is 11.

In the case of `[NH3+]c1ccccc1-c1nc2ccccc2s1`, the pKa was -1.8.

In turn, `CCCCCCCCCCCCCCCC(=O)N[C@@H](Cc1c[nH]cn1)C(=O)[O-]` displayed a pKa of 6.2.

Take `COc1c(C)cccc1C(=O)N[C@@H]1C[C@H]2CC[C@@H](C1)N2Cc1ccccc1`: the pKa stood at 8.92.

`CCOC(=O)CCCN` registered a pKa of 9.71.

Compound `CCCCC1CCCN1C` (configuration not stated) returned a pKa of 10.

With `Cn1nc(-c2ccccc2)cc/c1=N\CCN1CCOCC1`, the pKa was 10.2.

For the compound `CNc1c(C)cccc1C`, the pKa worked out at 6.12.

As for `CC1CCCC/C1=N\CC(=O)[O-]` (configuration not stated), the pKa turned out to be 9.64.

The values above are taken from the pKa sets of Baltruschat and Czodrowski (2020).
